Assay results reported in patent US20150237877A1, “METHODS OF HANDLING PERSIMMONS” (AGROFRESH INC., priority 2012, published 2015).

What was measured:
Assay type in all cases: in vivo, Persimmon (Diasoyros kaki)
[1] = system: persimmons, variety Rojo Brillante; assay: Example 4: pulp firmness of persimmons, MCP before storage, CO2 astringency removal after storage; conditions: cold storage, then room temperature for 7 days, MCP 600 ppb where applied
Experimental: Persimmons are harvested in Valencia—Spain and in the packing house part of the fruits are packed in plastic boxes and the other part is packed in MAP bags. • Location: Spain • Variety: Rojo Brillante (astringent, need CO2 application, ready to eat after astringency removal process) • Storage at 0° C. for 72 days • MCP application before the storage • MAP Bag: PE/EVA OP and Nylon bag with dimensions of 27″ (68.6 cm) width by 28″ (71.1 cm) length made from Kenylon 6250 Polyamide Film available from FM • Packaging
The Test Protocol is as follows. • a. PE/EVA OP Bags: 3 kg (6.6 lb) of fruits per bag, 5 bags per box and 6 RPC boxes • b. PE/EVA 8P Bags: 1 kg (2.2 lb) of fruits per bag, 15 bags per box and 6 RPC boxes • c. Nylon 0.2 and 0.35: 10 kg (22.5 lb) of fruits per bag, 2 bag per box and 6 RPC boxes • d. No Bag: 20 kg of fruits per box and 6 RPC boxes
The MAP-packaged persimmons are packaged as follows: fruits are carefully placed into microperforated bags, and the bags are sealed by twisting the open side of the bag, folding down the twisted end, and placing a rubber band around the twisted and folded end of the bag.
The appropriate weight of persimmons is placed in each bag after harvest and shipment. […]
For the Pulp Firmness evaluation, the persimmons have the skin removed with a peeler and the pulp firmness is measured with a Manual Penetrometer with a probe of 8 mm.

persimmons = assay: Example 2: pulp firmness of persimmons, 1-MCP and ethanol before storage; conditions: for Pulp Firmness, Day 0 / Pulp Firmness, Day 1 / Pulp Firmness, Day 4 / Pulp Firmness, Day 7 / Pulp Firmness, Day 10: 1000 ppb of MCP
Text: This Example uses a similar test to Example 1 but with the ethanol application before the storage, at the same time as 1-MCP application.
Persimmons are harvested in Mogi das Cruzes—SP—Brazil and packed in RPC (Recycle Plastic Container) and shipped to Piracicaba—SP. At the same day of harvest part of the persimmons are packed in MAP bags.
(§1) The Test Protocol is as follows. 4 MAP bags are packed. Each bag holds approximately 16 kg (36 lb) of persimmons. One such bag is packed in each RPC. Total weight of persimmons in MAP bags is approximately 64 kg. Approximately 64 kg of persimmons are placed into RPC identical to those used for the MAP bags.
(§2) The MAP-packaged persimmons are packaged as follows: 80 fruits, approximately 16 kg are carefully placed into microperforated bags, and the bags are sealed by twisting the open side of the bag, folding down the twisted end, and placing a rubber band around the twisted and folded end of the bag.
(§3) The appropriate weight of persimmons is placed in each bag after harvest and shipment. Bags are placed in RPC carrying devices. Persimmons are moved to a Cold Room at 12° C. next.
On the same day the persimmons are bagged, each treatment set is marked, placed in a hermetical chamber at the Cold Room. All chambers are of equal size and packed the same way. Treatment lasts for 12 hours. In the chambers for the “MCP” treatment groups, at the beginning of the treatment period, SmartTabs™ tablets are placed in the chamber. The amount of SmartTab™ tablets is chosen to achieve the indicated concentration of 1-methylcyclopropene in the atmosphere of the chamber. At the same time the persimmons are exposed to ethanol with the purpose of removing the astringency (3.5 mL/kg of fruit).
After the storage at Cold Room, the bags are removed and the RPCs are moved into racks at room temperature for storage and observation.
Evaluation firmness is as follows. Day “zero” is the day the persimmons are harvested and Day “one” is the day the persimmons are removed from the cold storage.
(§4) For the Pulp Firmness evaluation, the persimmons have the skin removed with a peeler and the pulp firmness is measured with a Firmness Texture Analyzer (FTA) with a probe of 8 mm.

persimmons, variety Fuyu = assay: Example 3: pulp firmness of persimmons, MCP before storage; conditions: for Pulp Firmness, Days 0 / Pulp Firmness, Days 3 / Pulp Firmness, Days 6: 500 ppb of MCP; for Pulp Firmness, Days 0: Day 0 after 60 days cold storage; for Pulp Firmness, Days 3: Day 3 after 60 days cold storage; for Pulp Firmness, Days 6: Day 6 after 60 days cold storage
Experimental: Persimmons are harvested in Madera—Calif. —USA and packed in cardboard boxes and shipped to Davis—Calif. At the same day of harvest part of the persimmons are packed in MAP bags. • Location: USA • Variety: Fuyu (non astringent, doesn't need ethanol application, ready to eat after harvest) • Storage at 0° C. for 60 days • MCP application before the storage • MAP Bag: Amcor bag type 30EF90.
The Amcor bag type 30EF90 has dimensions of 39.5″ (100.3 cm) wide and 35″ (88.9 cm) long. The bag is not perforated and has 25 microns thickness with an oxygen (O2) permeability of 6750 cc/[m^2 day]. The OTR of the bag is calculated to be 7560 cm^3/day.
as §1, with “10” for “16”, “(22.5” for “(36”, “RPC (Recycle Plastic Container).” for “RPC.”, “40” for “64”
The MAP-packaged persimmons are packaged as follows: 80 fruits, approximately 10 kg were carefully placed into microperforated bags, and the bags are sealed by twisting the open side of the bag, folding down the twisted end, and placing a rubber band around the twisted and folded end of the bag.
The appropriate weight of persimmons is placed in each bag after harvest and shipment. Bags are placed in RPC carrying devices. Persimmons then are moved to a Cold Room at 0° C.
(§5) On the same day the persimmons are bagged, each treatment set is marked, placed in a hermetical chamber at the Cold Room. All chambers are of equal size and packed the same way. Treatment lasts for 12 hours. In the chambers for the “MCP” treatment groups, at the beginning of the treatment period, SmartTabs™ tablets are placed in the chamber. The amount of SmartTab™ tablets is chosen to achieve the indicated concentration of 1-methylcyclopropene in the atmosphere of the chamber.
After 60 days of storage at Cold Room, the bags are removed and the RPCs are moved into racks at room temperature for storage and observation.
Evaluation firmness is as follows. Day “zero” is the day the persimmons are removed from the cold storage.
as §4

[2] = system: persimmons, variety Giombo; assay: Example 1: pulp firmness of persimmons, MCP before storage, ethanol after storage; conditions: for Pulp Firmness, Day 0 / Pulp Firmness, Day 1 / Pulp Firmness, Day 4: 1000 ppb of MCP
Experimental: Persimmons are harvested in Mogi das Cruzes—SP—Brazil and packed in RPC (Recycle Plastic Container) and shipped to Piracicaba—SP. At the same day of harvest part of the persimmons are packed in MAP bags. • Location: Brazil • Variety: Giombo (astringent and need to be treated with ethanol to be ready to eat) • Storage at 12° C. for 15 days • MAP Bag: a Nylon bag with dimensions of 27″ (68.6 cm) width by 28″ (71.1 cm) length made from Kenylon 6250 Polyamide Film available from FM Packaging. • MCP application before the storage • Ethanol Application after the storage
For the MAP bag used, the base film has 25 microns thickness without laser holes. The oxygen (O2) permeation of the MAP bag used is about 28 cc/m^2-day and the CO2 permeation is about 227 cc/m^2-day. The bags are laser drilled in the length direction with 105 micron holes at two locations 9″ (22.9 cm) from each side of the bag. The hole spacing is 9.06 mm. The total number of laser holes in the 20″ (8″ for tie off) length direction of the bag are about 228 holes. At an average hole diameter of 105 micron (pi×r^2=8630 micron^2), the 228 holes can provide an open area of ˜2.0 mm^2. The OTR of the bag is calculated to be 32,250 cm^3/day.
as §1, §2, §3, §5
Persimmons used in this trial are an astringent variety. To remove the astringency the fruits were treated with ethanol after the 15 days at cold storage.
After removed the bags for the MAP bag groups, all the fruits are placed in a hermetical chamber and treated with ethanol (3.5 mL/kg of fruit) for 12 hours.
After the treatment in the chambers, the RPCs are moved into racks at room temperature for storage and observation.
Firmness evaluation is as follows. Day “zero” was the day the persimmons are harvested and Day “one” is the day the persimmons are removed from the ethanol treatment.
as §4

[3] = Day 0 = day of harvest, MCP 1000 ppb where applied

Compound: CC1=CC1 [SmartFresh, 1-methylcyclopropene]
- Firmness [1]: 3.33 kg
- Δ, difference between the firmness for the treatment and the firmness for the No Bag treatment [1]: 1.33 kg
- Pulp Firmness, Day 0 (persimmons; Bag MAP): 20.99 lbf
- Pulp Firmness, Day 1 (persimmons; Bag MAP, Day 1): 18.16 lbf
- Pulp Firmness, Day 4 (persimmons; Bag MAP, Day 4): 16.94 lbf
- Pulp Firmness, Day 7 (persimmons; Bag MAP): 15.84 lbf
- Pulp Firmness, Day 10 (persimmons; Bag MAP): 14.23 lbf
- Firmness results, Day 0 (persimmons; [3]): 20.99 lbf
- Firmness difference (Δ) as compared to the control group, Day 1 (persimmons; Day 1): 0.15 lbf
- Firmness results, Day 1 (persimmons; Day 1 = day removed from the cold storage (12° C.), MCP 1000 ppb where applied): 16.65 lbf
- Firmness difference (Δ) as compared to the control group, Day 4 (persimmons; Day 4): −0.39 lbf
- Firmness results, Day 4 (persimmons; Day 4, room temperature after cold storage, MCP 1000 ppb where applied): 14.74 lbf
- Pulp Firmness, Day 0 (persimmons; No Bag): 20.99 lbf
- Pulp Firmness, Day 1 (persimmons; No Bag, Day 1): 17.87 lbf
- Pulp Firmness, Day 4 (persimmons; No Bag, Day 4): 15.09 lbf
- Pulp Firmness, Day 7 (persimmons; No Bag): 13.70 lbf
- Pulp Firmness, Day 10 (persimmons; No Bag): 12.62 lbf
- firmness provided to the persimmons (persimmons; after 7 day at room temperature): 1.55 lbf
- Firmness results, d60 + 3 day (persimmons, variety Fuyu; 60 days at 0° C. + 3 days at room temperature, MCP 500 ppb where applied): 9.1 lbf
- Firmness results, d60 + 6 day (persimmons, variety Fuyu; 60 days at 0° C. + 6 days at room temperature, MCP 500 ppb where applied): 6.7 lbf
- Firmness results, d60 + 0 day (persimmons, variety Fuyu; 60 days at 0° C., day removed from the cold storage, MCP 500 ppb where applied): 7.9 lbf
- Pulp Firmness, Days 0 (persimmons, variety Fuyu; Bag MAP (Amcor)): 11.1 lbf
- Pulp Firmness, Days 3 (persimmons, variety Fuyu; Bag MAP (Amcor)): 10.0 lbf
- Pulp Firmness, Days 6 (persimmons, variety Fuyu; Bag MAP (Amcor)): 9.9 lbf
- Pulp Firmness, Days 0 (persimmons, variety Fuyu; No Bag): 7.9 lbf
- Pulp Firmness, Days 3 (persimmons, variety Fuyu; No Bag): 9.1 lbf
- Pulp Firmness, Days 6 (persimmons, variety Fuyu; No Bag): 6.7 lbf
- Firmness difference (Δ) as compared to the control group, d60 + 6 day (persimmons, variety Fuyu; d60 + 6 day): 6.2 lbf
- firmness provided to the persimmons / maintained higher than the untreated fruits (persimmons, variety Fuyu; in vivo): 6.2 lbf
- Pulp Firmness, Day 0 ([2]; Bag MAP): 20.99 lbf
- Pulp Firmness, Day 1 ([2]; Bag MAP): 18.62 lbf
- Pulp Firmness, Day 4 ([2]; Bag MAP, Day 4): 18.18 lbf
- Firmness results, Day 0 [2, 3]: 20.99 lbf
- Firmness results, Day 1 ([2]; Day 1 = day removed from ethanol treatment, after 15 days at 12° C., MCP 1000 ppb where applied): 17.87 lbf
- Firmness difference (Δ) as compared to the control group, Day 4 ([2]; Day 4): 0.89 lbf
- Firmness results, Day 4 ([2]; Day 4, room temperature after 15 days at 12° C. and ethanol, MCP 1000 ppb where applied): 15.09 lbf
- Firmness difference (Δ) as compared to the control group, Day 7 ([2]; Day 7): 1.55 lbf
- Firmness results, Day 7 ([2]; Day 7, room temperature after 15 days at 12° C. and ethanol, MCP 1000 ppb where applied): 13.70 lbf
- Firmness results, Day 10 ([2]; Day 10, room temperature after 15 days at 12° C. and ethanol, MCP 1000 ppb where applied): 12.62 lbf
- Pulp Firmness, Day 0 ([2]; No Bag): 20.99 lbf
- Pulp Firmness, Day 1 ([2]; No Bag): 16.65 lbf
- Pulp Firmness, Day 4 ([2]; No Bag, Day 4): 14.74 lbf
- firmness provided to the persimmons ([2]; after 1 day at room temperature): 0.15 lbf
